US9603833B2, “Benzene or thiophene derivative and use thereof as VAP-1 inhibitor” (R-Tech Ueno, Ltd., priority 2008, dated 2017)
Structures can show the parent of a compound that is named as a salt.

What was measured:
Type in all cases: biochemical
human MAO-A = human MAO-A (Homo sapiens (Human), UniProt P21397); assay: Inhibitory effect on human MAO-A, MAO Detection Kit (Fluoro MAO); conditions: gene recombinant human MAO-A; fluorescence at 590 nm; 37° C., 2 hrs; read-out: MAO-A inhibition IC50
human MAO-A, sequence (P21397 whole entry): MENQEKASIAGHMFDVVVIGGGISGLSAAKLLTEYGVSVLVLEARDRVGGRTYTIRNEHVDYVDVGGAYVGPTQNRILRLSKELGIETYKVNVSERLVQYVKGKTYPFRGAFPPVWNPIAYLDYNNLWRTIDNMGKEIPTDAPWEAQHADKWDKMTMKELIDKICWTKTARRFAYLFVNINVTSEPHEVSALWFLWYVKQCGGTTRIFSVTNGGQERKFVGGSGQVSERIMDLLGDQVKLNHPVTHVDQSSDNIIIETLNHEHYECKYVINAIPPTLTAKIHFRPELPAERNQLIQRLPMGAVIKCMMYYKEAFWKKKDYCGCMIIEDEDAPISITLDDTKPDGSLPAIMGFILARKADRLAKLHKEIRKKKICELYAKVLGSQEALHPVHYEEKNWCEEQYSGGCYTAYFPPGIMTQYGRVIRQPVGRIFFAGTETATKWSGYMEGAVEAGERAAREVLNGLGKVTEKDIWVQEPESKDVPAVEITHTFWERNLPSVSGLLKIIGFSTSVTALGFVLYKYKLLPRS
Experimental: (§1) The compounds of the present invention obtained in the Production Examples were examined for the inhibitory effect on human monoamineoxydase enzymes (MAO-A and MAO-B) by the following method.
(§2) Gene recombinant human MAO-A and MAO-B enzymes were purchased from Sigma Ltd. The human MAO-A and MAO-B activities were measured using MAO Detection Kit (Fluoro MAO, Cell Technology Inc.). Assay was performed in a 96-well plate. 1× Reaction buffer (40 μl) was added to each well, and 50 μl (5 mg/ml) of MAO-A or MAO-B was added. Then, test compound solutions (final concentration 1×10^−4-1×10^−10 mol/l) (10 μl) were added and the mixtures were incubated at 37° C. for 20 mins. Reaction cocktail (100 μl) was added, and the mixtures (final volume 200 μl) were incubated at 37° C. for 2 hrs. Thereafter, the fluorescence at 590 nm was detected with an excitation wavelength of 570 nm using a multispectro microplate reader (Varioskan, Thermo Fisher Scientific K.K.).

human MAO-B = human MAO-B (Homo sapiens (Human), UniProt P27338); assay: Inhibitory effect on human MAO-B, MAO Detection Kit (Fluoro MAO); conditions: gene recombinant human MAO-B; fluorescence at 590 nm; 37° C., 2 hrs; read-out: MAO-B inhibition IC50
human MAO-B, sequence (P27338 whole entry): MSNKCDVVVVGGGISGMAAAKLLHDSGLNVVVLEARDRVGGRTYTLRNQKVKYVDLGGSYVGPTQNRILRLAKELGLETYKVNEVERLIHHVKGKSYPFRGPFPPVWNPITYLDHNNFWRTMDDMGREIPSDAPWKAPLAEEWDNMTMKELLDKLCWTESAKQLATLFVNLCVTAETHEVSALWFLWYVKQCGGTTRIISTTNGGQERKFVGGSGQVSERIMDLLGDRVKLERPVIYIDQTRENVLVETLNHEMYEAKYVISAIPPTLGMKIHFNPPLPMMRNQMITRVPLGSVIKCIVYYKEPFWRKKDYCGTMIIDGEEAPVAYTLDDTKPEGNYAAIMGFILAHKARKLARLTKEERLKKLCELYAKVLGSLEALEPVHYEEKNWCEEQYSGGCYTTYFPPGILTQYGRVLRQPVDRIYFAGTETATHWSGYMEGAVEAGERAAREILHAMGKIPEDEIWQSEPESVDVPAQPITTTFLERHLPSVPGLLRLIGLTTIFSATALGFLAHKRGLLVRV
Experimental: as §1, §2

[1] = biological target: human VAP-1 enzyme (SSAO) (Homo sapiens (Human), UniProt Q16853); assay: Inhibitory effect on human VAP-1 enzyme (SSAO), radiochemical-enzyme assay using 14C-benzylamine; conditions: human VAP-1 expressed in a cell, cell extract; 14C-benzylamine 1×10^−5 mol/L; 37° C., 2 hours
human VAP-1 enzyme (SSAO), sequence (Q16853 whole entry): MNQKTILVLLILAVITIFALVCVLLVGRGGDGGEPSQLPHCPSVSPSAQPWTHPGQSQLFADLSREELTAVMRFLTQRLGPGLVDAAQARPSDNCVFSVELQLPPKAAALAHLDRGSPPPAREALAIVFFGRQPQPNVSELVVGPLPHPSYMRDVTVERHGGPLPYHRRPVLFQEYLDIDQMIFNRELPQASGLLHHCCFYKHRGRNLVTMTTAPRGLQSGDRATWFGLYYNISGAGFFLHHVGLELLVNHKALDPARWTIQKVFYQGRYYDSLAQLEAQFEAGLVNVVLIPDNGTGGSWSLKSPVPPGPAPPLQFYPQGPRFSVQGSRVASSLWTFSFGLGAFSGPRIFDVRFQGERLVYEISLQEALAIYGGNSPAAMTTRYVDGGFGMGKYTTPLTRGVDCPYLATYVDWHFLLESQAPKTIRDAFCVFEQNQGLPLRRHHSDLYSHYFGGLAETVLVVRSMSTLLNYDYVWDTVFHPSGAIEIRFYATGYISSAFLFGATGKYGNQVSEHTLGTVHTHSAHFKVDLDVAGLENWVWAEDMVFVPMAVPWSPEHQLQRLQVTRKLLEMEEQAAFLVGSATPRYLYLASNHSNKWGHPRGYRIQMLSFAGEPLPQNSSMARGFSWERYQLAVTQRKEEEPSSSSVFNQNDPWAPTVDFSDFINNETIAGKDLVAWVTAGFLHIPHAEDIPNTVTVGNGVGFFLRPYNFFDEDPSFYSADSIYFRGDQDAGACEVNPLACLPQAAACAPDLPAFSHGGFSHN
Experimental: (§3) The compounds of the present invention obtained in Production Examples were examined for the inhibitory effect on human and rat VAP-1 enzyme (SSAO) by the following method.
(§4) The VAP-1 enzyme (SSAO) activity in both human and rat was measured by a radiochemical-enzyme assay using ^14C-benzylamine as an artificial substrate. Human or rat VAP-1 was cloned from the cDNA library and expressed in a cell. The cell extract was preincubated with a test compound solution (final concentration 1×10^−7-1×10^−10 mol/L) at room temperature for 20 minutes. Then, ^14C-benzylamine (final concentration 1×10^−5 mol/L) was added, and the mixture was incubated at a final volume of 200 μL at 37° C. for 2 hours. The enzyme reaction was stopped by addition of 2 mol/L (200 μL) citric acid. The oxidation product was extracted with 1 mL toluene/ethyl acetate (1:1), and the radioactivity thereof was measured by a liquid scintillation counter.

rat VAP-1 enzyme (SSAO) = rat VAP-1 enzyme (SSAO) (Rattus norvegicus (Rat), UniProt O08590); assay: Inhibitory effect on rat VAP-1 enzyme (SSAO), radiochemical-enzyme assay using 14C-benzylamine; conditions: rat VAP-1 expressed in a cell, cell extract; 14C-benzylamine 1×10^−5 mol/L; 37° C., 2 hours
rat VAP-1 enzyme (SSAO), sequence (O08590 whole entry): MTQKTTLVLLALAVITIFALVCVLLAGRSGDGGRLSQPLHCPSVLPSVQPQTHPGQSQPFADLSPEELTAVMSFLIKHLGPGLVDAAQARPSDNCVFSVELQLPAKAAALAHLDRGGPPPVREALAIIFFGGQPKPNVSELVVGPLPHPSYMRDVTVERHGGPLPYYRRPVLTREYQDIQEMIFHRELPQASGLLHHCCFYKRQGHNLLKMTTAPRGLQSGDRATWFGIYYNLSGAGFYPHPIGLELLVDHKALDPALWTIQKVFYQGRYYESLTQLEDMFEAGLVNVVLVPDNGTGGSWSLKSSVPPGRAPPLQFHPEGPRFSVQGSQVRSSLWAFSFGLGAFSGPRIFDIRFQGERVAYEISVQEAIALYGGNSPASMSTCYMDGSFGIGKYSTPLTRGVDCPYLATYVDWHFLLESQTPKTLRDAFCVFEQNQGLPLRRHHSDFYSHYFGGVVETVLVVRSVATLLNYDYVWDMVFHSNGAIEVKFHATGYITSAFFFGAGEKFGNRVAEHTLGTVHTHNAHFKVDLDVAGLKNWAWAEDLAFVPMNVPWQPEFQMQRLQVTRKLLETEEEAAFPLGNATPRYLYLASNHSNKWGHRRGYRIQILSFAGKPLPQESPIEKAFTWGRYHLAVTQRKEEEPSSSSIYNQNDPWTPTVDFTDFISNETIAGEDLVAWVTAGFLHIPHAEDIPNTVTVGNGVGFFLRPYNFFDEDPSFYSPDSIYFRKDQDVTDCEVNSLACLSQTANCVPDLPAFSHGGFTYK
Experimental: as §3, §4

Compound	IC50 (human MAO-A) [nM]	IC50 (human MAO-B) [nM]	IC50 [1] [nM]	IC50 (rat VAP-1 enzyme (SSAO)) [nM]
CN1CCN(c2ccc(CCc3ccc(CC(=O)NN)cc3)cc2)CC1 [Production Example 35, 2-(4-{2-[4-(4-methylpiperazin-1-yl)phenyl]ethyl}phenyl)acetohydrazide trihydrochloride]	> 100000	> 100000		
NNC(=O)Cc1ccc(CCc2cccc(N3CCNCC3)n2)cc1 [Production Example 51, 2-{4-[2-(6-piperazin-1-ylpyridin-2-yl)ethyl]phenyl}acetohydrazide tetrahydrochloride]	> 100000	> 100000	9.8	29.4
CC(=O)N1CCN(c2ccc(CCc3ccc(CC(=O)NN)cc3)nc2)CC1 [Production Example 87, 2-(4-{2-[5-(4-acetylpiperazin-1-yl)pyridin-2-yl]ethyl}phenyl)acetohydrazide trihydrochloride]	> 100000	> 100000	3.2	1.4
NNC(=O)Cc1ccc(CCc2ccnc(N3CCNCC3)c2)cc1 [Production Example 105, 2-{4-[2-(2-piperazin-1-ylpyridin-4-yl)ethyl]phenyl}acetohydrazide tetrahydrochloride]	> 100000	> 100000	7.3	7.2
CC(=O)N1CCN(c2ccc(CCc3ccc(COC(=O)NN)cc3F)nc2)CC1 [Production Example 113, 4-{2-[5-(4-acetylpiperazin-1-yl)pyridin-2-yl]ethyl}-3-fluorobenzyl hydrazinecarboxylate trihydrochloride]			0.9	0.7
CC(=O)N1CCN(c2ccc(CCc3ccc(CNC(=O)NN)cc3F)nc2)CC1 [Production Example 114, N-(4-{2-[5-(4-acetylpiperazin-1-yl)pyridin-2-yl]ethyl}-3-fluorobenzyl)hydrazinecarboxamide trihydrochloride]			2	1.2
CC(=O)N1CCN(c2ccc(CCc3ccc(CCOC(=O)NN)s3)nc2)CC1 [Production Example 115, 2-(5-{2-[5-(4-acetylpiperazin-1-yl)pyridin-2-yl]ethyl}thiophen-2-yl)ethyl hydrazinecarboxylate]			4	10.1
CC(=O)N1CCN(c2ccc(CCc3ccc(C(=O)NN)s3)nc2)CC1 [Production Example 116, 5-{2-[5-(4-acetylpiperazin-1-yl)pyridin-2-yl]ethyl}thiophene-2-carbohydrazide]			9.5	9.8
CC(=O)N1CCN(c2ccc(CCc3ccc(CCNC(=O)NN)s3)nc2)CC1 [Production Example 117, N-[2-(5-{2-[5-(4-acetylpiperazin-1-yl)pyridin-2-yl]ethyl}thiophen-2-yl)ethyl]hydrazinecarboxamide]			18.7	2.7
CC(=O)N1CCN(c2ccc(CCc3ccc(CCC(=O)NN)cc3)nc2)CC1 [Production Example 119, 3-(4-{2-[5-(4-acetylpiperazin-1-yl)pyridin-2-yl]ethyl}phenyl)propanehydrazide trihydrochloride]			4.7	8.7
CC(=O)N1CCN(c2ccc(CCc3ccc(CC(=O)NN)s3)nc2)CC1 [Production Example 120, 2-(5-{2-[5-(4-acetylpiperazin-1-yl)pyridin-2-yl]ethyl}thiophen-2-yl)acetohydrazide]			3.7	0.6
CC(=O)N1CCN(c2ccc(CCc3csc(CCC(=O)NN)c3)nc2)CC1 [Production Example 121, 3-(4-{2-[5-(4-acetylpiperazin-1-yl)pyridin-2-yl]ethyl}thiophen-2-yl)propanehydrazide trihydrochloride]			2.2	1.6
CC(=O)N1CCN(c2ccc(CCc3ccc(CCOC(=O)NN)cc3)nc2)CC1 [Production Example 122, 2-(4-{2-[5-(4-acetylpiperazin-1-yl)pyridin-2-yl]ethyl}phenyl)ethyl hydrazinecarboxylate trihydrochloride]			6.6	8
CC(=O)N1CCN(c2ccc(CCc3csc(CCCOC(=O)NN)c3)nc2)CC1 [Production Example 124, 3-(4-{2-[5-(4-acetylpiperazin-1-yl)pyridin-2-yl]ethyl}thiophen-2-yl)propylhydrazinecarboxylate]			4.7	5.5
